{"source": "paper PMC5274652", "about": "“Antagonizing Retinoic Acid Receptors Increases Myeloid Cell Production by Cultured Human Hematopoietic Stem Cells” (Archivum Immunologiae et Therapiae Experimentalis, 2016)", "key": {"human RARβ": {"biological_target": "T1, human RARβ (Homo sapiens, UniProt P10826)", "T1 construct": "made in house", "T1 sequence (P10826 1-455)": "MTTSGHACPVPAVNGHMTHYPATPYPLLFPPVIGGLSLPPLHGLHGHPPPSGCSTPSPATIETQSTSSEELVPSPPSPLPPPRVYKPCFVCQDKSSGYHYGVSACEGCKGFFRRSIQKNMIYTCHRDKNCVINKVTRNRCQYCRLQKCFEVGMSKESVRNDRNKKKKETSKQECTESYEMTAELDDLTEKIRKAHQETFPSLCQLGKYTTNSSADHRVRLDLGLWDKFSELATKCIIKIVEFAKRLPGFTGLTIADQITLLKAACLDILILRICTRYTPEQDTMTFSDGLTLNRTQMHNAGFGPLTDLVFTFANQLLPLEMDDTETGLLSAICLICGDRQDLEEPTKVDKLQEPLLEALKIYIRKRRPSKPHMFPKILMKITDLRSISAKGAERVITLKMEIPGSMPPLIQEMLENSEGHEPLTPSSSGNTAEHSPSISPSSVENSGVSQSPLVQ", "test": "Competition with [3H]-ATRA binding, nuclear extracts of Sf21 cells expressing RARβ", "settings": "nuclear extracts of baculovirus-infected Sf21 cells, read-out: Binding affinity ED50, RARβ"}, "human RARα": {"biological_target": "T2, human RARα (Homo sapiens, UniProt P10276)", "T2 construct": "made in house", "T2 sequence (P10276 1-462)": "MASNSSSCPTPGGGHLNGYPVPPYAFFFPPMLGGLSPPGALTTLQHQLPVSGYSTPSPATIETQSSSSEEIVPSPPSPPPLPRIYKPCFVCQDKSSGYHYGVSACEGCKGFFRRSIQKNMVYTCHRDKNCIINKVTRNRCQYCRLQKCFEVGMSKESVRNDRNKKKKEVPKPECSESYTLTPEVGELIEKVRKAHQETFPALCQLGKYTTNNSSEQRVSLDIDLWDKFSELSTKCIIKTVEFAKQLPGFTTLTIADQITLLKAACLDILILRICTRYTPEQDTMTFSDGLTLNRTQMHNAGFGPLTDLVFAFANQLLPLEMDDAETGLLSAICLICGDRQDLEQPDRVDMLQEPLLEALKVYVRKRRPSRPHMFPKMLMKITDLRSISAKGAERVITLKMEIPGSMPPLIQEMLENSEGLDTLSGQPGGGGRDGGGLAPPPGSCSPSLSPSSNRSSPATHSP", "test": "Competition with [3H]-ATRA binding, nuclear extracts of Sf21 cells expressing RARα", "settings": "nuclear extracts of baculovirus-infected Sf21 cells, read-out: Binding affinity ED50, RARα"}, "human RARγ": {"biological_target": "T3, human RARγ (Homo sapiens, UniProt P13631)", "T3 construct": "made in house", "T3 sequence (P13631 1-454)": "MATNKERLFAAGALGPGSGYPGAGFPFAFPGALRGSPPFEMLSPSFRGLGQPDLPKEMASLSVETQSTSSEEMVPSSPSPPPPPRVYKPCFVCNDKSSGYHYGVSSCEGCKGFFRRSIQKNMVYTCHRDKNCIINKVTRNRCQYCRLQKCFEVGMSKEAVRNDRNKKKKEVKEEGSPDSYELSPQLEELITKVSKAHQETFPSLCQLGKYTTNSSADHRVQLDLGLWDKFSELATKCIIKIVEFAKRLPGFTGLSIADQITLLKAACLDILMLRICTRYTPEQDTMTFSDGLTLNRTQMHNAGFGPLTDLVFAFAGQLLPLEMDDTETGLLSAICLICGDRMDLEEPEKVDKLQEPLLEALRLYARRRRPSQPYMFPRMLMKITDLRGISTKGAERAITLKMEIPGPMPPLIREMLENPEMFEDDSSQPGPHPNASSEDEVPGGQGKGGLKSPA", "test": "Competition with [3H]-ATRA binding, nuclear extracts of Sf21 cells expressing RARγ", "settings": "nuclear extracts of baculovirus-infected Sf21 cells, read-out: Binding affinity ED50, RARγ"}, "CD34^+vehuHSCs": {"tested_on": "CD34^+vehuHSCs", "settings": "100 nM, 2 weeks, 2 donors", "procedure": "Assays for week-five cobblestone area forming cells (CAFC), long-term culture-initiating cells (LTC-IC), and colony-forming units (CFU) were performed at the Stem Cell Laboratory at the National Blood Service Stem Cell Laboratory using standard procedures and methods, as described by other workers (de […] and Ploemacher [2001]; Denning-Kendall et al. [1996]; Nicol et al. [1996]). CFU assays were performed using Methocult^TM GF H8444 (StemCell Technologies) and in 35 mm petri dishes. The presence of CAFC was scored as the presence of 12 or more closely associated and small cells that were embedded in the MS5 cell feeder layer and blind by an experienced reader. The nature of CFUs, as to colony-forming unit-granulocyte/erythroid/megakaryocyte/monocyte (CFU-GEMM), colony-forming unit-granulocyte/macrophage (CFU-GM), burst-forming unit-erythroid (BFU-E), and colony-forming unit-erythroid (CFU-E), was scored blind at the service by a person who routinely reads colony assays and is accredited. The nature of colonies was confirmed by sampling colonies and staining cytocentrifuged preparations of cells."}}}
{"smiles": "CCc1ccc(C2=CC(C)(C)Sc3ccc(C#Cc4ccc(C(=O)O)cc4)cc32)cc1", "note": "[AGN194310]", "values": [{"measurement": "IC50", "setting": "human RARβ", "result": 5, "unit": "nM"}, {"measurement": "IC50", "setting": "human RARα", "result": 4.3, "unit": "nM"}, {"measurement": "IC50", "setting": "human RARγ", "result": 2, "unit": "nM"}, {"measurement": "BFU-E together with CFU-E as share of the total colony-forming units", "setting": "CD34^+vehuHSCs; control 7 %", "result": 41, "unit": "%"}, {"measurement": "CFU-GM as share of the total colony-forming units", "setting": "CD34^+vehuHSCs; control 93 %", "result": 56, "unit": "%"}, {"measurement": "CFU-GEMM as share of the total colony-forming units", "setting": "CD34^+vehuHSCs; control not detected", "result": 3, "unit": "%"}]}
